Measured values: paper PMC9804084, “Multiple drug transporters contribute to the brain transfer of levofloxacin” (CNS Neuroscience & Therapeutics, 2022)
Read-outs that look alike come from different tables or passages of the source.

Key:
[1] = test system: Organic anion transporters (OATs); assay: In vivo microdialysis pharmacokinetics of LVFX with OATs inhibitor probenecid; parameters: species or system rat; conditions: for MRT / half-life / Tmax / AUC(0-inf) / Cmax / AUC(0-t) / Kp: rat, intravenous, with Probenecid 50 mg/kg i.p., PRO group, Probenecid 50 mg/kg i.p. + LVFX 50 mg/kg, N=5; for MRT / half-life / AUC(0-inf) / Cmax / AUC(0-t): mean ± SD; for AUC(0-t): read-out: AUC0–180 (converted)
Method: On the day of surgery, rats were anesthetized using inhaled isoflurane via a facemask. The rats were placed in a stereotaxic frame (Gene&I), and the body temperature was maintained with a homoeothermic blanket set at 37°C. A midline incision was made to expose the skull. According to the Paxinos and Watson atlas, two microdialysis intracerebral guide cannulae (Eicom Co.) were implanted into the hippocampus CA1 region (Hp‐CA1 coordinates: AP −4.16 mm; ML −2.2 mm; DV −2.9 mm) and lateral ventricle (LV coordinates: AP −1.4 mm; ML +2.2 mm; DV −3.4 mm). Fixed to the skull using a screw and dental cement. After 3 days of recovery, the rats were anesthetized with isoflurane again. An intravascular probe (TP‐100‐20; 20 mm, Eicom Co.) was implanted into the jugular vein toward the right atrium. After the blood microdialysis probe was positioned within the jugular vein, the pipeline was connected to perfuse with ACD solution (citric acid 3.5 mM; sodium citrate 7.5 mM; dextrose 13.6 mM) at a flow rate of […], and the Hamilton microinjection pump was used for continuous perfusion. After stopping isoflurane inhalation, the rats were allowed to wake up naturally on the homoeothermic blanket. The awake rats were placed in a device that allowed them to move freely. Animals were allowed to recover for an additional 24 h.
All microdialysate concentrations (C m) from the hippocampal ECF and lateral ventricle CSF were converted to the unbound drug concentration (C u) at the target site using the following formula: C u = C m/R dial.
A total of 32 rats were randomly divided into the following groups: • Control group, N = 12: vehicle solution + LVFX (50 mg/kg). • TAR group, N = 5: Tariquidar (8 mg/kg) + LVFX (50 mg/kg). • Ko143 group, N = 5: Ko143 (15 mg/kg) + LVFX (50 mg/kg). • MK571 group, N = 5: MK571 (20 mg/kg) + LVFX (50 mg/kg). • PRO group, N = 5: Probenecid (50 mg/kg) + LVFX (50 mg/kg).
Levofloxacin was freshly dissolved in isotonic saline and administered via tail vein injection. Thirty minutes before LVFX administration, the intervention drugs of each group were injected intraperitoneally. To reduce the possible effect of solvents on BBB or BCSFB permeability of LVFX, we prioritized water as the solvent. However, Tariquidar and Ko143 are insoluble in water, and a cosolvent must be used to prepare agents that animals can tolerate. According to the different physicochemical properties of these four inhibitors, the preparation of each transporter inhibitor solution in this experiment was as follows. • P‐glycoprotein (P‐gp) inhibitor Tariquidar[22]: Tariquidar was freshly dissolved in DMSO to 8 mg/ml and then diluted to 4 mg/ml with a solution containing 10% Tween‐80, 25% PEG300, and 65% sterile water. • Breast cancer resistance protein (BCRP) inhibitor Ko143[23]: Ko143 was freshly dissolved in DMSO to 15 mg/ml and then diluted to 7.5 mg/ml with a solution containing 10% Tween‐80, 25% PEG300, and 65% sterile water. • Multidrug resistance‐associated proteins (MRPs) inhibitor MK571[24]: MK571 sodium salt hydrate was dissolved in 1.25% (w/v) aq sodium hydrogen carbonate (NaHCO3) solution to obtain a concentration of 10 mg/ml. • Organic anion transporters (OATs) inhibitor probenecid[25]: Probenecid was dissolved in NaOH (pH = 9.0–9.2) alkalized physiological saline to obtain a concentration of 25 mg/ml.
The pipelines where the blood and brain probes were installed were perfused at the speed of 2 μl/min with ACD solution and ACSF, respectively. Two brain probes were inserted into guide cannulas of the target site and allowed to equilibrate for 1 h. Subsequently, the rats were treated according to their corresponding groups in the device where they could move freely. Microdialyses samples were collected every 15 min using a fraction collector (EFC‐96, Eicom Co.) for 3 h and stored at 4°C until analysis. Finally, rats were anesthetized and decapitated, and their brain was harvested.

[2] = Stability of LVFX in QC samples (dialysate solvents) under storage conditions; type: physicochemical; conditions: for Calculated concentration (mean ± SD): n=3
Method: Using artificial cerebrospinal fluid (ACSF) and Ringer's solution as solvents, the LVFX concentration required for calibration and quality control (QC) samples was obtained by appropriate step‐by‐step dilution. A calibration curve was constructed using the relationship between the analyte peak area and analyte concentration obtained in the range of 0.01–30 μg/ml. Linearity was assessed by a weighted (1/x ^2) least squares regression analysis. The accuracy and precision of the method were evaluated by QC samples of high, medium, and low concentrations. Quantification of the concentration of QC samples was conducted three times on the same day to evaluate the intra‐day precision and accuracy. The same procedure was employed for 3 consecutive days to evaluate the inter‐day precision and accuracy of this method. The relative error (RE%) and relative standard deviation (RSD%) were used to evaluate the accuracy and precision, respectively. We evaluated the stability of LVFX in dialysates under short‐term (6 h) room temperature, low temperature (4°C), and freeze–thaw conditions (three cycles).

[3] = blood, PRO group (probenecid 50 mg/kg) vs control group
[4] = CSF (lateral ventricle microdialysate, unbound), 30 min before LVFX, CSF
[5] = CSF (lateral ventricle microdialysate, unbound), CSF
[6] = brain ECF (hippocampal microdialysate, unbound), 30 min before LVFX, brain ECF

C[C@H]1COc2c(N3CCN(C)CC3)c(F)cc3c(=O)c(C(=O)O)cn1c23 [LVFX, Levofloxacin]
AUC0–180 higher than control group [1, 3]: 128.6% | AUC0–∞ higher than control group [1, 3]: 143.0% | C max greater than control group [1, 3]: 71.2% | MRT longer than control group [1, 3]: 1.29 times | t 1/2 longer than control group [1, 3]: 1.28 times | MRT [1, 4]: 1.47 h | half-life [1, 4]: 0.959 ± 0.126 h | Tmax [1, 5]: 0.25 h | AUC(0-inf) [1, 5]: 9510 ng·h/mL | Cmax [1, 5]: 6800 ± 240 ng/mL | AUC(0-t) [1, 5]: 8330 ng·h/mL | Kp ([1]; CSF / blood (unbound, microdialysate), 30 min before LVFX, AUCu,CSF/AUCu,blood, read-out: K p,uu,CSF): 0.359 ± 0.008 | Tmax [1, 6]: 0.25 h | AUC(0-inf) [1, 6]: 9220 ng·h/mL | Cmax [1, 6]: 5850 ± 180 ng/mL | half-life [1, 6]: 1.12 ± 0.28 h | AUC(0-t) [1, 6]: 7830 ng·h/mL | Kp ([1]; brain ECF / blood, 30 min before LVFX, AUCu,ECF/AUCu,blood, read-out: K p,uu,ECF): 0.337 ± 0.012 | Tmax ([1]; 30 min before LVFX, blood): 0.25 h | AUC(0-inf) ([1]; 30 min before LVFX, blood): 27000 ng·h/mL | Cmax ([1]; 30 min before LVFX, blood): 17500 ± 600 ng/mL | MRT ([1]; 30 min before LVFX, blood): 1.58 h | half-life ([1]; 30 min before LVFX, blood): 1.05 ± 0.16 h | AUC(0-t) ([1]; 30 min before LVFX, blood): 23200 ng·h/mL | MRT ([1]; 30 min before LVFX, brain ECF): 1.61 h | stability under storage conditions employed ([2]; QC samples, room temp 6 h, 4°C, freeze–thaw 3 cycles): stable | maximum deviation in stability test of QC samples ([2]; all storage conditions (Table 2)): 4.71% | Calculated concentration (mean ± SD) ([2]; freeze–thaw (3 cycles), nominal concentration 0.3 μg/ml): 0.289 ± 0.008 µg/mL | Calculated concentration (mean ± SD) ([2]; freeze–thaw (3 cycles), nominal concentration 3 μg/ml): 2.960 ± 0.140 µg/mL | Calculated concentration (mean ± SD) ([2]; freeze–thaw (3 cycles), nominal concentration 30 μg/ml): 29.959 ± 0.417 µg/mL | Calculated concentration (mean ± SD) ([2]; low temperature (4°C) 12 h, nominal concentration 0.3 μg/ml): 0.294 ± 0.012 µg/mL | Calculated concentration (mean ± SD) ([2]; low temperature (4°C) 12 h, nominal concentration 3 μg/ml): 3.055 ± 0.105 µg/mL | Calculated concentration (mean ± SD) ([2]; low temperature (4°C) 12 h, nominal concentration 30 μg/ml): 29.844 ± 0.102 µg/mL | Calculated concentration (mean ± SD) ([2]; short term (room temp) 6 h, nominal concentration 0.3 μg/ml): 0.293 ± 0.011 µg/mL | Calculated concentration (mean ± SD) ([2]; short term (room temp) 6 h, nominal concentration 3 μg/ml): 3.098 ± 0.056 µg/mL | Calculated concentration (mean ± SD) ([2]; short term (room temp) 6 h, nominal concentration 30 μg/ml): 30.608 ± 0.405 µg/mL
